Format in all cases: cell-based, mouse
Test [1] has as its system CAR T cells cocultured with Eμ-myc cells with or without macrophages (imMac). Put plainly: Expansion assay of mCherry+ CAR T cells (IncuCyte live cell analysis) in cocultures. Particulars: for CAR T cell expansion: CAR T cells cocultured with Eμ-myc cells without macrophages, agent present; for CAR T cell expansion / CAR T cell expansion in cocultures with imMac: over 48 h. The procedure:
Macrophage development and polarization: BMDMs were generated from bone marrow cells harvested from femurs and tibias of WT or iNOS^−/− mice. […] On day 3, 10 ml of fresh medium with 20 ng/ml M-CSF was added. On day 5, the culture medium was entirely discarded and replaced by 15 ml of fresh medium with 20 ng/ml M-CSF. On day 6, BMDMs were activated for 24 h with 20 ng/ml of IL-4 and IL-10 (Peprotech) to develop imMac or cultured in media only to use as unMac. M-CSF (20 ng/ml) was added during activation with cytokines. On day 7, adherent cells were harvested by gentle scraping and used for in vitro experiments.
Expansion assay: The expansion of mCherry^+ CAR T cells was determined by an IncuCyte S3 live cell analysis system (Essen Bioscience). 2×10^4 Eμ-myc cells and 2×10^4 CAR T cells were cocultured in the absence or presence of 0.5×10^4 macrophages (CAR T:Eμ-myc cell:Macrophage=1:1:0.25, unless otherwise indicated in the figures) in a 96-well black-walled clear bottom plate in 120 μl of media. Cell images were captured at 4× magnification. The expansion index was calculated by dividing the total integrated red intensity (RCU×m^2/mm^2) at each time point by the first time point.
Immunoregulatory actions of macrophages on CAR T cells: To explore how M2-like macrophages may impact the cellular function of CAR T cells, the study employed a syngeneic coculture system (FIG. 3A). […] The BMDMs were either unpolarized (unMac) or induced to differentiate into M2-like macrophages by culturing with type 2 cytokines IL-4 and IL-10. […] The study next explored the impact of imMac on CAR T cell effector function. To exclude the direct contribution of macrophage effector activities in these functional assays, CAR T cells, Eμ-myc cells, and macrophages were first cocultured for 48 hours (FIG. 3G). Next, CAR T cells isolated from the cocultures were evaluated for their effector function against fresh Eμ-myc cells.

For test [2], the system named is CAR T cells cocultured with fresh Eμ-myc cells. Put plainly: Cytokine secretion assay (Ella automated ELISA) with CAR T cells isolated from initial coculture. The settings on record: CAR T cells isolated after 48 h coculture with Eμ-myc cells with NCX-4016 (100 PM) or PNT (50 μM); supernatants at 24 h. The procedure: (§1) CAR T cell isolation from initial coculture for subsequent downstream assays: 1×10^6 CAR T cells and 1×10^6 Eμ-myc-GFP-FFL cells were cocultured in the absence or presence of 0.25×10^6 macrophages in a 6-well plate in 6 ml of media for 48 h. After initial coculture, cells were harvested, and T cells were isolated using Mouse T Cell Isolation Kit ([…] Technologies). […] Percentage of CAR-expressing T cells was determined with flow cytometry and were subsequently used for downstream assays.
Cytokine secretion assay: 2×10^4 Eμ-myc cells were cocultured with 2×10^4 CAR T cells in a 96-well plate in a total volume of 100 μl of media. Supernatants were collected and analyzed for IFN-γ and TNF-α secretion using Ella automated immunoassay system (Proteinsimple Bio-techne) according to manufacturer's instructions.
On the technique in general: In an ELISA, binding on a coated surface is turned into a signal by an enzyme label.

The next test relates to Eμ-myc cells. In words: Luciferase-based killing assay with CAR T cells isolated from initial coculture. Particulars: CAR T cells isolated after 48 h initial coculture with Eμ-myc cells with NCX-4016 (100 μM) or PNT (50 μM), no macrophages; lysis at 24 h. As for the experimental part: as §1
Luciferase-based killing assay: 2×10^4 Eμ-ALL-GFP-FFL cells were cocultured with CAR T cells at different effector-to-target ratios in a 96-well white-walled plate in 100 μl of media. Following incubation, 100 μl luciferase substrate reagent (ONE-Glo Luciferase assay system, Promega) was added to each well. Target cells alone were plated at the same cell density to determine maximum luciferase signals. Emitted luminescence was detected in the microplate reader (GloMax, Promega). Percent lysis was determined as (1−sample signal/maximum signal)×100.

From patent US20240307335A1, “IRG Blockade to Armor CAR T Cells Against Myeloid Dysfunction” (ROSWELL PARK CANCER INSTITUTE CORPORATION, priority 2023, published 2024) come the findings set out here.

Each structure is given as a SMILES string.

Regarding `C=C(CC(=O)OCCCCCCCC)C(=O)O` [4-OI, 4-octyl itaconate], the “CAR T cell expansion” value is given as “impaired CAR T cell expansion” in test [1], “reduced CAR T cell expansion” in test [1] (listed as 4OI) and “reduced CAR T cell expansion” in test [1] (listed as 401).
In the case of `COC(=O)CCC(=O)C(=O)OC` [DMKG], in test [1] (FIG. 15, iNOS in imMac disrupts TCA cycle progression in CAR T cells), the “rescue of CAR T cell expansion by supplementation” value is “failed to rescue CAR T cell expansion”.
Consider `CC(=O)Oc1ccccc1C(=O)Oc1cccc(CO[N+](=O)[O-])c1` [NCX-4016], for which, in test [2], the “secretion of effector cytokine IFN-γ by CAR T cells” value is given as “diminished” and the “secretion of effector cytokine TNF-α by CAR T cells” value was “diminished”. In addition, the “lysis of Eμ-myc cells by CAR T cells (ability to kill tumor cells)” value with Eμ-myc cells is “diminished ability of CAR T cells to kill tumor cells”. In test [1], the “CAR T cell expansion” value is “inhibition of CAR T cell expansion”.
On to `O=NOO` [PNT, peroxynitrite], for which, in test [2], the “secretion of effector cytokine IFN-γ by CAR T cells” value is “diminished” and the “secretion of effector cytokine TNF-α by CAR T cells” value is listed as “diminished”. In addition, the “lysis of Eμ-myc cells by CAR T cells (ability to kill tumor cells)” value in the test with Eμ-myc cells was “diminished ability of CAR T cells to kill tumor cells”. In test [1], the “CAR T cell expansion” value is on record as “inhibition of CAR T cell expansion”.
On to `CC1(C)N([O])C(c2ccc(C(=O)O)cc2)=[N+]([O-])C1(C)C` [c-PTIO, carboxyl-PTIO], for which, in test [1] (CAR T cells and Eμ-myc cells with imMac, agent present (L-NIL 50 μM; anti-IFN-γ 10 μg/mL; c-PTIO)), the “CAR T cell expansion in cocultures with imMac” value is recorded as “partially rescued the expansion of CAR T cells”.
Turning to `NC(=O)NCCC[C@H](N)C(=O)O` [citrulline], the “CAR T cell expansion” value in test [1] is listed as “did not impact the expansion of CAR T cells”.
On to `N=C(NO)NCC[C@H](N)C(=O)O` [nor-NOHA, N(omega)-hydroxy-nor-L-arginine], for which the “CAR T cell expansion in cocultures with imMac” value in test [1] (physiological arginine concentration (150 μM), nor-NOHA (50 PM)) was “failed to rescue CAR T cell expansion”; in test [1] (supraphysiological arginine concentration (1.15 mM) in culture media, nor-NOHA (50 PM)) it was “did not restore CAR T cell expansion”.
